Measurements from patent publication US20250163119A1, “COMPOUNDS FOR THE TREATMENT OF DIABETES OR OBESITY” (Eli Lilly and Company, priority 2023, published 2025).
Where “and” joins values, the source holds several entries; their conditions need not be identical. Identical values can stand only once. Like-named read-outs stand apart in the source and are kept apart here. *1 amine or outer side, *2 acyl side, *3 side chain or, on linkers, in order; H or OH if unused. Side-chain parts run from the residue outwards. [ ]: non-standard residue; d: D form. The star is where a group is joined. C20 diacid = O=C(O)CCCCCCCCCCCCCCCCCCC(=O)*; γGlu = O=C(O)[C@H](CCC(=O)[*:2])N[*:1]; εLys = N[C@@H](CCCCN[*:1])C(=O)[*:2]; αMeL = CC(C)C[C@](C)(N)C(=O)O; AEEA = NCCOCCOCC(=O)O; Aib = CC(C)(N)C(=O)O

Assays:
[1] = Pharmacokinetics in Sprague Dawley rats, single subcutaneous or intravenous dose (incl. 10, 30, 100 nmol/kg dose response); type: in vivo; conditions: for Tmax: read-out: Tmax
[2] = test system: MHC-II presented peptides on human dendritic cells; experiment: MAPPS assay (MHC-Associated Peptide Proteomics); type: cell-based
In short: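 Peptides eluted from anti-MHC-II immunoprecipitates of day-6 DC lysates were sequenced by MS, mapped onto the parent test molecule, and scored as percentage of donors presenting each region. DCs derived from donor CD14+ cells (IL-4, GM-CSF) received test molecules on day 4, then LPS maturation on day 5.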

[3] = dose response, single subcutaneous dose 10 nmol/kg, male Sprague Dawley rats, individual animal
[4] = dose response, single subcutaneous dose 30 nmol/kg, male Sprague Dawley rats, individual animal
[5] = dose response, single subcutaneous dose 100 nmol/kg, male Sprague Dawley rats, individual animal
[6] = male Sprague Dawley rats, single intravenous dose 187 nmol/kg, individual animal
[7] = male, Sprague Dawley, rat, plasma, iv, 187 nmol/kg, single intravenous dose 187 nmol/kg, Mean
[8] = male, Sprague Dawley, rat, plasma, sc, 10 nmol/kg, dose response, single subcutaneous dose 10 nmol/kg, individual animal
[9] = male, Sprague Dawley, rat, plasma, sc, 10 nmol/kg, dose response, single subcutaneous dose 10 nmol/kg, mean
[10] = male, Sprague Dawley, rat, plasma, sc, 30 nmol/kg, dose response, single subcutaneous dose 30 nmol/kg, individual animal
[11] = male, Sprague Dawley, rat, plasma, sc, 30 nmol/kg, dose response, single subcutaneous dose 30 nmol/kg, mean
[12] = male, Sprague Dawley, rat, plasma, sc, 100 nmol/kg, dose response, single subcutaneous dose 100 nmol/kg, individual animal
[13] = male, Sprague Dawley, rat, plasma, sc, 100 nmol/kg, dose response, single subcutaneous dose 100 nmol/kg, mean
[14] = male, Sprague Dawley, rat, plasma, sc, 187 nmol/kg, single subcutaneous dose 187 nmol/kg, individual animal
[15] = male, Sprague Dawley, rat, plasma, sc, 187 nmol/kg, single subcutaneous dose 187 nmol/kg, mean
[16] = single subcutaneous dose 187 nmol/kg, male Sprague Dawley rats, individual animal

Ac-GSPSIVTS[αMeL]DVPT[Aib][αMeL]LQKILEQERAEKARQQAK([γGlu-AEEA-εLys-C20 diacid])EAAEILAQV-NH2 [SEQ ID NO: 1, Ac-GSPSIVTS αMeL DVPT Aib αMeL LQKILEQERAEKARQQAK(γE-(2-[2-(2-Amino-ethoxy)-ethoxy]-acetyl)-ϵK-CO-(CH2)18-CO2H)EAAEILAQV-NH2]
AUC0-inf [1, 3]: 2.07 µM·h and 1.86 µM·h and 2.21 µM·h
CL/F [1, 3]: 6.10 mL/h/kg and 4.63 mL/h/kg
Cmax [1, 3]: 37.7 nM and 26.4 nM and 38.5 nM
T1/2 [1, 3]: 41.7 h and 31.1 h
AUC0-inf [1, 4]: 6.42 µM·h and 6.92 µM·h and 7.69 µM·h
CL/F [1, 4]: 4.55 mL/h/kg and 4.19 mL/h/kg
Cmax [1, 4]: 102 nM and 110 nM and 104 nM
T1/2 [1, 4]: 37.1 h and 36.1 h
AUC0-inf [1, 5]: 18.8 µM·h and 21.1 µM·h and 20.7 µM·h
CL/F [1, 5]: 4.86 mL/h/kg and 4.91 mL/h/kg
Cmax [1, 5]: 348 nM and 332 nM and 321 nM
T1/2 [1, 5]: 26.0 h and 24.6 h
AUC0-inf [1, 6]: 111 µM·h and 91.9 µM·h and 77.3 µM·h
C0 [1, 6]: 5970 nM and 6950 nM and 2400 nM
CL [1, 6]: 2.04 mL/h/kg and 2.42 mL/h/kg
T1/2 [1, 6]: 47.5 h and 23.2 h and 31.0 h
clearance [1, 7]: 2.05 mL/h/kg
half-life [1, 7]: 33.9 h
clearance ([1]; male, Sprague Dawley, rat, plasma, iv, 187 nmol/kg, single intravenous dose 187 nmol/kg, individual animal): 1.69 mL/h/kg
half-life [1, 8]: 26 h
CL/F ([1]; male, Sprague Dawley, rat, plasma, sc, 10 nmol/kg, dose response, single subcutaneous dose 10 nmol/kg, individual animal, read-out: CL/F (converted)): 5.1 mL/h/kg
Tmax [1, 8]: 24 h
half-life [1, 9]: 32.9 h
CL/F ([1]; male, Sprague Dawley, rat, plasma, sc, 10 nmol/kg, dose response, single subcutaneous dose 10 nmol/kg, mean, read-out: CL/F (converted)): 5.28 mL/h/kg
Tmax [1, 9]: 24 h
half-life [1, 10]: 31.5 h
CL/F ([1]; male, Sprague Dawley, rat, plasma, sc, 30 nmol/kg, dose response, single subcutaneous dose 30 nmol/kg, individual animal, read-out: CL/F (converted)): 4.8 mL/h/kg
Tmax [1, 10]: 24 h
half-life [1, 11]: 34.9 h
CL/F ([1]; male, Sprague Dawley, rat, plasma, sc, 30 nmol/kg, dose response, single subcutaneous dose 30 nmol/kg, mean, read-out: CL/F (converted)): 4.51 mL/h/kg
Tmax [1, 11]: 32 h
half-life [1, 12]: 30.8 h
CL/F ([1]; male, Sprague Dawley, rat, plasma, sc, 100 nmol/kg, dose response, single subcutaneous dose 100 nmol/kg, individual animal, read-out: CL/F (converted)): 5.46 mL/h/kg
Tmax [1, 12]: 24 h
half-life [1, 13]: 27.1 h
CL/F ([1]; male, Sprague Dawley, rat, plasma, sc, 100 nmol/kg, dose response, single subcutaneous dose 100 nmol/kg, mean, read-out: CL/F (converted)): 5.08 mL/h/kg
Tmax [1, 13]: 24 h
half-life [1, 14]: 37.7 h
CL/F ([1]; male, Sprague Dawley, rat, plasma, sc, 187 nmol/kg, single subcutaneous dose 187 nmol/kg, individual animal, read-out: CL/F (converted)): 3.67 mL/h/kg
Tmax [1, 14]: 24 h
half-life [1, 15]: 35.7 h
CL/F ([1]; male, Sprague Dawley, rat, plasma, sc, 187 nmol/kg, single subcutaneous dose 187 nmol/kg, mean, read-out: CL/F (converted)): 4.07 mL/h/kg
Tmax [1, 15]: 24 h
AUC0-inf ([1]; rat, plasma, sc, dose response, single subcutaneous dose 10 nmol/kg, male Sprague Dawley rats, mean, read-out: AUC0-inf): 2.05 µM·h
Cmax ([1]; rat, plasma, sc, dose response, single subcutaneous dose 10 nmol/kg, male Sprague Dawley rats, mean, read-out: Cmax): 34.2 nM
AUC0-inf ([1]; rat, plasma, sc, dose response, single subcutaneous dose 30 nmol/kg, male Sprague Dawley rats, mean, read-out: AUC0-inf): 7.01 µM·h
Cmax ([1]; rat, plasma, sc, dose response, single subcutaneous dose 30 nmol/kg, male Sprague Dawley rats, mean, read-out: Cmax): 105 nM
AUC0-inf ([1]; rat, plasma, sc, dose response, single subcutaneous dose 100 nmol/kg, male Sprague Dawley rats, mean, read-out: AUC0-inf): 20.2 µM·h
Cmax ([1]; rat, plasma, sc, dose response, single subcutaneous dose 100 nmol/kg, male Sprague Dawley rats, mean, read-out: Cmax): 334 nM
AUC0-inf ([1]; rat, plasma, sc, single subcutaneous dose 187 nmol/kg, male Sprague Dawley rats, mean, read-out: AUC0-inf): 49 µM·h
Cmax ([1]; rat, plasma, sc, single subcutaneous dose 187 nmol/kg, male Sprague Dawley rats, mean, read-out: Cmax): 657 nM
AUC0-inf ([1]; rat, plasma, male Sprague Dawley rats, single intravenous dose 187 nmol/kg, Mean, read-out: AUC0-inf): 93.4 µM·h
C0 ([1]; rat, plasma, male Sprague Dawley rats, single intravenous dose 187 nmol/kg, Mean, read-out: C0): 5110 nM
AUC0-inf [1, 16]: 53.9 µM·h and 41.2 µM·h and 51.8 µM·h
CL/F [1, 16]: 4.77 mL/h/kg and 3.77 mL/h/kg
Cmax [1, 16]: 804 nM and 511 nM and 657 nM
T1/2 [1, 16]: 38.2 h and 31.2 h
MAPPS Assay >10 donors with diverse MHC ([2]; donors displaying MHC-II peptides / donors tested): 3/20
peptides displayed on MHC-II complexes ([2]; human dendritic cells from normal donors): at least one peptide cluster on MHC-II complexes in a subset of donors
immunogenicity compared with SEQ ID NO:54 ([2]; in the MAPPs assay and/or the T cell proliferation assay): substantial improvements in immunogenicity over a compound comprising SEQ ID NO:54
MAPPS Assay >10 donors with diverse MHC ([2]; percentage of donors displaying MHC-II peptides): 15%
